From patent publication US20140155384A1, “COMPOUNDS AND METHODS OF TREATING DIABETES” (Medivation Technologies, Inc., priority 2011, published 2014)

Experiments:
[1] = target: T1, human recombinant adrenergic α2A receptor (Homo sapiens, UniProt P08913); assay: Radioligand binding, adrenergic α2A receptor ([3H]MK-912); conditions: 0.1 μM compound, Sf9 cells, 1 nM [3H]MK-912; for inhibition at 0.1 µM: read-out: Percentage inhibition of ligand binding, Adrenergic α2A
T1 construct: expressed in transfected cells; host or cells: insect Sf9 cells
T1 sequence (P08913 1-465): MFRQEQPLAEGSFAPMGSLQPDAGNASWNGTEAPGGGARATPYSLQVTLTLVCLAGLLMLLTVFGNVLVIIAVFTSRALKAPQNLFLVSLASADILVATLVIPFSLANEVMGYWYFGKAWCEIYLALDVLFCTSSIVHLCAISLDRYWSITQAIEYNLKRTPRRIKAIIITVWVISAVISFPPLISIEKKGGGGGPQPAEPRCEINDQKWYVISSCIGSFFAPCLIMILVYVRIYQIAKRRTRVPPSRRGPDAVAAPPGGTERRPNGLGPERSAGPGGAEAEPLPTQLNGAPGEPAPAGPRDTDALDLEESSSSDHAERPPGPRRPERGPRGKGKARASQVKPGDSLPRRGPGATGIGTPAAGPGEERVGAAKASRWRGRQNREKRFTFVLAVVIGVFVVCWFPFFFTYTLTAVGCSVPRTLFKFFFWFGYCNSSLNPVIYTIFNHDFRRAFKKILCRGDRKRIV
Experimental: To evaluate in radioligand binding assays the activity of compounds, human recombinant adrenergic α2A receptor expressed in insect Sf9 cells (Uhlen, S. et al, J. Pharmacol. Exp. Ther. 271:1558, 1994) in a modified Tris-HCl buffer (50 mM Tris-HCl, pH 7.4, 12.5 mM MgCl2, 2 mM EDTA) was used. Compounds were incubated with 1 nM [^3H]MK-912 for 60 min at 25° C. MK912 is (2S-trans)-1,3,4,5′,6,6′,7,12b-octahydro-1′,3′-dimethyl-spiro[2H-benzofuro[2,3-a]quinolizine-2,4′(1′H)-pyrimidin]-2′(3′H)-one hydrochloride Non-specific binding was estimated in the presence of 10 μM WB-4101 (2-(2,6-Dimethoxyphenoxyethyl)aminoethyl-1,4-benzodioxane hydrochloride). Receptor proteins were filtered and washed, the filters were then counted to determine [^3H]MK-912 specifically bound. Compounds were screened at 1 μM or lower, using 1% DMSO as vehicle. Compounds were tested in this biochemical assay and percent inhibition of specific binding was determined. Biochemical assay results are presented as the percent inhibition of specific binding in Table 2.

[2] = target: T2, rat adrenergic α1B receptor (Rattus norvegicus, UniProt P15823); assay: Radioligand binding, adrenergic α1B receptor ([3H]Prazosin); conditions: 0.1 μM compound, Wistar rat liver, read-out: Percentage inhibition of ligand binding, Adrenergic α1B
T2 construct: rat adrenergic α1B receptor obtained from Wistar Rat liver; from tissue; host or cells: Wistar rat liver
T2 sequence (P15823 1-515): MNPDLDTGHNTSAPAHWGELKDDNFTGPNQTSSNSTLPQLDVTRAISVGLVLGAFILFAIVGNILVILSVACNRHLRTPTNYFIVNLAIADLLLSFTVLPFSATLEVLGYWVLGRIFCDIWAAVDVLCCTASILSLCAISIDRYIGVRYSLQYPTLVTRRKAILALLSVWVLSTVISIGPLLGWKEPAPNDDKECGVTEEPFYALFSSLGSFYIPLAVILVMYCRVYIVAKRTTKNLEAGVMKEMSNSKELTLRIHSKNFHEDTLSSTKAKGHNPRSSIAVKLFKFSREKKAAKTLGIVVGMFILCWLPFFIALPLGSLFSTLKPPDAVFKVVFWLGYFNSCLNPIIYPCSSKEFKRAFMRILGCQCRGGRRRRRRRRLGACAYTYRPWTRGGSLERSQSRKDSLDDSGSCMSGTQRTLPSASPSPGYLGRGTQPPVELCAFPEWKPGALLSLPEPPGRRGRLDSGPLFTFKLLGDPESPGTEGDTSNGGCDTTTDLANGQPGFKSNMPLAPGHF
Experimental: To evaluate in radioligand binding assays the activity of compounds, rat adrenergic α1B receptor obtained from Wistar Rat liver (Garcia-S' ainz, J. et al, Biochem. Biophys. Res. Commun. 186:760, 1992; Michel, A. et al, Br. J. Pharmacol. 98:883, 1989) in a modified Tris-HCl buffer (50 mM Tris-HCl buffer, pH 7.4, 0.5 mM EDTA) was used. Compounds were incubated with 0.25 nM [^3H]Prazosin for 60 min at […]. Non-specific binding was estimated in the presence of 10 μM phentolamine. Receptor proteins were filtered and washed, the filters were then counted to determine [^3H]Prazosin specifically bound. Compounds were screened at 1 μM or lower, using 1% DMSO as vehicle. Compounds were tested in this biochemical assay and percent inhibition of specific binding was determined. Biochemical assay results are presented as the percent inhibition of specific binding in Table 2.

[3] = target: T3, human recombinant adrenergic α1D receptor (Homo sapiens, UniProt P25100); assay: Radioligand binding, adrenergic α1D receptor ([3H]Prazosin); conditions: 0.1 μM compound; HEK-293 cells; 0.6 nM [3H]Prazosin; read-out: Percentage inhibition of ligand binding, Adrenergic α1D
T3 construct: expressed in transfected cells; host or cells: HEK-293
T3 sequence (P25100 1-572): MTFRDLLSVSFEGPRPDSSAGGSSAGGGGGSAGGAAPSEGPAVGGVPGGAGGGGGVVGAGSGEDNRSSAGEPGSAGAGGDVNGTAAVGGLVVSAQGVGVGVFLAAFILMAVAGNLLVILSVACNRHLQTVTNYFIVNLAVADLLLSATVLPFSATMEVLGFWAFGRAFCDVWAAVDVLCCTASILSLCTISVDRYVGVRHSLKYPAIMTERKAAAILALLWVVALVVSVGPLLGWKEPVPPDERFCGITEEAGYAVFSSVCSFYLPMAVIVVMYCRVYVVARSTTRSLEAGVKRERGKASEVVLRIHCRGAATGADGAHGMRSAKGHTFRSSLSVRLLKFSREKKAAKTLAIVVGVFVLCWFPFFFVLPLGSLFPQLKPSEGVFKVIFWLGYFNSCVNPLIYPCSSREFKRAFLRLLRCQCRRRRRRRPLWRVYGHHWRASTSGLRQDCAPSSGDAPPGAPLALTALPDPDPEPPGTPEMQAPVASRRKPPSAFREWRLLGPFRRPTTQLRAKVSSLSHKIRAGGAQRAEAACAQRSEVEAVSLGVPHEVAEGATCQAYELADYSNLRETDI
Experimental: Compounds were incubated with 0.6 nM [3H]Prazosin for 60 min at 25° C. Non-specific binding was estimated in the presence of 10 μM phentolamine. Receptor proteins were filtered and washed, the filters were then counted to determine [3H]Prazosin specifically bound. Compounds were screened at 1 μM or lower, using 1% DMSO as vehicle. Biochemical assay results are presented as the percent inhibition of specific binding in Table 2.

[4] = target: T4, human recombinant adrenergic α2B receptor (Homo sapiens, UniProt P18089); assay: Radioligand binding, adrenergic α2B receptor ([3H]Rauwolscine); conditions: CHO-K1 cells, read-out: Percentage inhibition of ligand binding, Adrenergic α2B; for inhibition at 0.1 µM: 0.1 μM compound
T4 construct: expressed in transfected cells; host or cells: CHO-K1
T4 sequence (P18089 1-450): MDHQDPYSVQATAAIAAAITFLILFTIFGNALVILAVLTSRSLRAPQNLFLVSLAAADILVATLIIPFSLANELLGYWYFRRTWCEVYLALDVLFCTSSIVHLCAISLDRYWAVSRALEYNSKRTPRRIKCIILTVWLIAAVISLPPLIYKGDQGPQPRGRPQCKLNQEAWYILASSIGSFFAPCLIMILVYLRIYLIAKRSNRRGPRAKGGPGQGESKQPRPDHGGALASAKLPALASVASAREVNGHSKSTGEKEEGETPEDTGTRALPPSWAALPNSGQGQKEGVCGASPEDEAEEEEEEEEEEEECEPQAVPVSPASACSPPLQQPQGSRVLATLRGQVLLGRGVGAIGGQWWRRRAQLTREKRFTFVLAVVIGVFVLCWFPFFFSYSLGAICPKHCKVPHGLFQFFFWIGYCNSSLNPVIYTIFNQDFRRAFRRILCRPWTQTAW
Experimental: To evaluate in radioligand binding assays the activity of compounds, human recombinant adrenergic α2B receptor expressed in Chinese hamster ovary (CHO) K1 cells (Uhlen, S. et al, Eur. J. Pharmacol. 343(1):93, 1998) in a modified Tris-HCl buffer (50 mM Tris-HCl, pH 7.4, 12.5 mM MgCl2, 1 mM EDTA, 0.2% BSA) was used. Compounds were incubated with 2.5 nM [^3H]Rauwolscine for 60 min at 25° C. Non-specific binding was estimated in the presence of 10 μM Prazosin. Receptor proteins were filtered and washed, the filters were then counted to determine [^3H]Rauwolscine specifically bound. Compounds were screened at 1 μM or lower, using 1% DMSO as vehicle. Compounds were tested in this biochemical assay and percent inhibition of specific binding was determined. Biochemical assay results are presented as the percent inhibition of specific binding in Table 2.

SMILES	inhibition at 0.1 µM [1]	inhibition at 0.1 µM [2]	inhibition at 0.1 µM [3]	inhibition at 0.1 µM [4]	Percentage inhibition of ligand binding, Adrenergic α2A [1]	inhibition at 0.03 µM ([4]; 0.03 μM compound)
Cc1ccc2c(c1)c1c(n2-c2ccsc2)CCN(C)C1 [Compound 14, 2,8-dimethyl-5-thiophen-3-yl-2,3,4,5-tetrahydro-1H-pyrido[4,3-b]indole]	23%	38%	20%	51%		
Cc1ccc2c(c1)c1c(n2-c2ccoc2)CCN(C)C1 [Compound 15, 5-furan-3-yl-2,8-dimethyl-2,3,4,5-tetrahydro-1H-pyrido[4,3-b]indole]	10%	35%	19%	30%		
Cc1ccc2c(c1)c1c(n2-c2cccs2)CCN(C)C1 [Compound 16, 2,8-dimethyl-5-thiophen-2-yl-2,3,4,5-tetrahydro-1H-pyrido[4,3-b]indole]	-1%	8%	16%	16%		
Cc1ccc2c(c1)c1c(n2-c2cscc2-c2cnn(C)c2)CCN(C)C1 [Compound 30]	42%	32%	17%	86%		
Cc1ccc2c(c1)c1c(n2-c2ccccc2-c2cnc(N(C)C)nc2)CCN(C)C1 [Compound 31]	74%	36%	80%	67%		
Cc1ccc2c(c1)c1c(n2-c2cnc3c(c2)CCCC3)CCN(C)C1 [Compound No. 153]	1%					
Cc1ccc2c(c1)c1c(n2-c2ccccc2-c2ccc(S(C)(=O)=O)cc2)CCN(C)C1 [Compound No. 160, 2,8-dimethyl-5-(4′-(methylsulfonyl)biphenyl-2-yl)-2,3,4,5-tetrahydro-1H-pyrido[4,3-b]indole]				74%		
Cc1ccc2c(c1)c1c(n2-c2ccccc2-c2ccc(S(N)(=O)=O)cc2)CCN(C)C1 [Compound No. 163, 2′-(2,8-dimethyl-3,4-dihydro-1H-pyrido[4,3-b]indol-5(2H)-yl)biphenyl-4-sulfonamide]				69%		
Cc1ccc2c(c1)c1c(n2-c2cnc(C)c3ccccc23)CCN(C)C1 [Compound No. 164, 2,8-dimethyl-5-(1-methylisoquinolin-4-yl)-2,3,4,5-tetrahydro-1H-pyrido[4,3-b]indole]				3%		

Next, values leading:

inhibition at 0.1 µM [1]	inhibition at 0.1 µM [2]	inhibition at 0.1 µM [3]	inhibition at 0.1 µM [4]	Percentage inhibition of ligand binding, Adrenergic α2A [1]	inhibition at 0.03 µM ([4]; 0.03 μM compound)	SMILES
26%	52%	45%	78%			Cc1ccc2c(c1)c1c(n2-c2ccccc2-c2ccncc2)CCN(C)C1 [Compound 5, 2,8-dimethyl-5-(2-pyridin-4-yl-phenyl)-2,3,4,5-tetrahydro-1H-pyrido[4,3-b]indole]
88%	61%	63%	85%			Cc1ccc2c(c1)c1c(n2-c2ccccc2-c2ccc(F)cc2)CCN(C)C1 [Compound 10, 5-(4′-fluoro-biphenyl-2-yl)-2,8-dimethyl-2,3,4,5-tetrahydro-1H-pyrido[4,3-b]indole]
72%	73%	65%	80%			Cc1ccc2c(c1)c1c(n2-c2ccccc2-c2ccnn2C)CCN(C)C1 [Compound 32]
10%		22%	87%	19%	61%	Cc1ccc2c(c1)c1c(n2-c2ccccc2-c2cn[nH]c2)CCN(C)C1 [Compound No. 104, 5-(2-(1H-pyrazol-4-yl)phenyl)-2,8-dimethyl-2,3,4,5-tetrahydro-1H-pyrido[4,3-b]indole]
			56%			Cc1ccc2c(c1)c1c(n2-c2ccccc2-c2cnccc2C)CCN(C)C1 [Compound No. 159, 2,8-dimethyl-5-(2-(4-methylpyridin-3-yl)phenyl)-2,3,4,5-tetrahydro-1H-pyrido[4,3-b]indole]
			26%			Cc1ccc2c(c1)c1c(n2-c2ncccc2-c2ccncc2)CCN(C)C1 [Compound No. 161, 5-(3,4′-bipyridin-2-yl)-2,8-dimethyl-2,3,4,5-tetrahydro-1H-pyrido[4,3-b]indole]
